Measurements from US20250214925A1, “CATIONIC LIPID, LIPOSOME, LIPID NANOPARTICLE, AND USE” (CARCELL BIOPHARMA LTD., priority 2022, published 2025).

What was measured:
[1] = LNP size and PDI by dynamic laser light scattering; format: physicochemical; conditions: LNP: 50% cationic lipid, 38.5% cholesterol, 10% DSPC, 1.5% DMG-PEG2000; Ffluc mRNA
Summary of the method: (§1)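 LNPs of cationic lipid/cholesterol/DSPC/DMG-PEG2000 at 50/38.5/10/1.5 mol% in ethanol, mixed with Ffluc mRNA at 0.2 mg/mL in 10 mM pH 4.0 citrate via T-mixer at 40 mL/min. Dialyzed overnight against 50 mM Tris-buffered saline pH 7.4 and sieved; PDI by dynamic light scattering, encapsulation by Ribogreen.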

[2] = mRNA encapsulation efficiency of LNP by Ribogreen assay; format: physicochemical; conditions: LNP: 50% cationic lipid, 38.5% cholesterol, 10% DSPC, 1.5% DMG-PEG2000; Ffluc mRNA
Summary of the method: as §1

mice [3] = test: In vivo delivery of Ffluc mRNA LNP in mice, intravenous administration, luminescence relative to MC3; parameters: species or system mice (female Balb/C); conditions: fold change in luminescence intensity relative to MC3; 0.06 mg/kg tail vein; 6 h after injection
Summary of the method: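 Female Balb/C mice (18-22 g, 6-8 weeks, n=5) received Ffluc mRNA LNP at 0.06 mg/kg by tail vein in 50 mM TBS pH 7.4. Six hours later, intraperitoneal D-luciferin was given and whole-body luminescence imaged, with each lipid reported as fold change relative to MC3 LNP.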

mice [4] = test: In vivo delivery of Ffluc mRNA LNP in mice, intramuscular administration, luminescence relative to MC3; parameters: species or system mice (female Balb/C); conditions: fold change in luminescence intensity relative to MC3; 50 μL of 0.1 mg/mL mRNA LNP into right thigh; 6 h after injection
Procedure: The prepared encapsulation solution was applied to mice in the following manner, and its delivery efficiency in mice was tested. Among them, DLin-MC3-DMA (MC3) was a cationic liposome for delivering small nucleic acids that was approved by the FDA for marketing in 2018, which has high nucleic acid drug delivery efficiency and biosafety, and was usually used as the industry gold standard in the screening process of cationic lipids. In the evaluation of mice experiments, the ratio of nucleic acid delivery efficiency normalized to MC3 was greater than 0.1, which was considered to be a cationic lipid with high delivery efficiency.
The LNP solution was diluted with 50 mM TBS, pH 7.4 to a concentration of 0.1 mg/mL mRNA.
2. The mice involved in this study were female Balb/C, weighing 18-22 g, 6-8 weeks old, with 5 mice in each group.
3. The dosing solution was kept at 4° C. prior to injection.
4. 50 μL of LNP solution was injected into the right thigh of the mice.
5. The mice were injected intraperitoneally with 200 μL of 1.5 mg/mL D-luciferin solution 6 h after injection.
6. The in vivo luminescence images of the mice were obtained using the IVIS system (Aniview).
7. The luminescence intensity of each mice was measured using Aniview software.
8. MC3 lipid nanoparticles were used as a positive control. The in vivo efficacy of each cationic lipid tested was recorded as the fold change in luminescence intensity relative to MC3 (ratio normalized to MC3).

| Molecule | PDI [1] | Size (nm) [1] [nm] | Encapsulation Rate [2] [%] | In Vivo Efficacy Normalized To Mc3 In Mice (Intravenous Injection) (mice [3]) | In Vivo Efficacy Normalized To Mc3 In Mice (Intramuscular Injection) (mice [4]) |
| --- | --- | --- | --- | --- | --- |
| CCCCCCCCCC/C(=C\C(=O)OCCCCN(CCCO)CCCCOC(=O)/C=C(/CCCCC)CCCCCCCCCC)CCCCC [CPL-026, ((3-hydroxypropyl)azanediyl)bis(butane-4,1-diyl) (2Z,2′Z)-bis(3-pentyltridec-2-enoate)] | 0.2143 | 71.34 | 95 | 2.51 | 0.92 |
| CCCCCCCCCC/C(=C/C(=O)OCCCCCCN(CCCO)CCCCCCOC(=O)/C=C(\CCC)CCCCCCCCCC)CCC [CPL-062-01, ((3-hydroxypropyl)azanediyl)bis(hexane-6,1-diyl) (2E,2′E)-bis(3-propyltridec-2-enoate)] | 0.0828 | 67.12 | 98 | 2.21 | 1.06 |
| CCCCCCCCCC/C(=C/C(=O)OCCCCCCN(CCCO)CCCCCCOC(=O)/C=C(\CCCC)CCCCCCCCCC)CCCC [CPL-066, ((3-hydroxypropyl)azanediyl)bis(hexane-6,1-diyl) (2E,2′E)-bis(3-butyl-2-tridecenoate)] | 0.19 | 87.2 | 98 | 1.95 | 4.04 |
| CCCCCCCC/C(=C/C(=O)OCCCCCCN(CCCO)CCCCCCOC(=O)/C=C(\CCCCC)CCCCCCCC)CCCCC [CPL-069-01, ((3-hydroxypropyl)azanediyl)bis(hexane-6,1-diyl) (2E,2′E)-bis(3-pentylundec-2-enoate)] | 0.126 | 84.59 | 97 | 2.70 | 1.72 |
| CCCCCCCCCC/C(=C\C(=O)OCCCCCCN(CCCO)CCCCCCOC(=O)/C=C(/CCCCC)CCCCCCCCCC)CCCCC [CPL-070, ((3-hydroxypropyl)azanediyl)bis(hexane-6,1-diyl) (2Z,2′Z)-bis(3-pentyltridec-2-enoate)] | 0.2173 | 100.4 | 95 | 3.74 | 1.85 |
| CCCCCCC(=CC(=O)OCCCCCCN(CCCO)CCCCCCOC(=O)C=C(CCCCCC)CCCCCC)CCCCCC [CPL-071, ((3-hydroxypropyl)azanediyl)bis(hexane-6,1-diyl) (2E,2′E)-bis(3-hexylnon-2-enoate)] | 0.1733 | 88.06 | 92 | 2.05 | 7.81 |
| CCCCCCC/C(=C/C(=O)OCCCCCCN(CCCO)CCCCCCOC(=O)/C=C(\CCCC)CCCCCCC)CCCC [CPL-074, ((3-hydroxypropyl)azanediyl)bis(hexane-6,1-diyl) (2E,2′E)-bis(3-butyldec-2-enoate)] | 0.3691 | 95.7 | 99 | 2.40 | 7.93 |
| CCCCCCCCCC/C(=C/C(=O)OCCCCCCN(CCCO)CCCCCCOC(=O)/C=C(\CCCCCCCC)CCCCCCCCCC)CCCCCCCC [CPL-079, ((3-hydroxypropyl)azanediyl)bis(hexane-6,1-diyl) (2E,2′E)-bis(3-octyltridec-2-enoate)] | 0.1557 | 94.46 | 94 | 4.95 | 1.30 |
| CCCCCCCCCC/C(=C/C(=O)OCCCCCCCN(CCCO)CCCCCCCOC(=O)/C=C(\CCCCC)CCCCCCCCCC)CCCCC [CPL-092-01, ((3-hydroxypropyl)azanediyl)di(heptane-7,1-diyl) (2E,2′E)-di(3-pentyltridec-2-enoate)] | 0.21 | 98.6 | 97 | 8.96 | 2.20 |
| CCCCCCC/C(=C/C(=O)OCCCCCCCN(CCCO)CCCCCCCOC(=O)/C=C(\CCCC)CCCCCCC)CCCC [CPL-096, ((3-hydroxypropyl)azanediyl)bis(heptane-7,1-diyl)(2E,2′E)-bis(3-butyldec-2-enoate)] | 0.1973 | 71.62 | 95 | 2.06 | 2.59 |
| CCCCCCCCCC/C(=C\C(=O)OCCCCCCCN(CCCO)CCCCCCCOC(=O)/C=C(/CCCCCCCC)CCCCCCCCCC)CCCCCCCC [CPL-101, ((3-hydroxypropyl)azanediyl)bis(heptane-7,1-diyl)(2Z,2′Z)-bis(3-octyltridec-2-enoate)] | 0.0791 | 69.38 | 95 | 2.90 | 1.76 |
| CCCCCCCC/C(=C/C(=O)OCCCCCCCCN(CCCO)CCCCCCCCOC(=O)/C=C(\CCCCC)CCCCCCCC)CCCCC [CPL-113-01, ((3-hydroxypropyl)azanediyl)bis(octane-8,1-diyl) (2E,2′E)-bis(3-pentylundec-2-enoate)] | 0.24 | 97.7 | 96 | 2.52 | 1.65 |
| CCCCC/C=C\C/C=C\CCCCCCCC(=O)OCC(COC(=O)/C=C(\CCCCCCC)CCCCCCCC)COC(=O)OCCCN1CCCCC1 (stereo not shown) [CPL-428, 3-(((E)-3-heptylundec-2-enoyl)oxy)-2-((((3-(piperidin-1-yl)propoxy)carbonyl)oxy)methyl)propyl(9Z,12Z)-octadeca-9,12-dienoate] | 0.1411 | 73.57 | 96 | 0.34 | – |
| CCCCC/C=C\C/C=C\CCCCCCCC(=O)OCC(COC(=O)/C=C(\CCCCCC)CCCCCCC)COC(=O)OCC1CCN(CC)CC1 (stereo not shown) [CPL-449, 3-((((1-ethylpiperidin-4-yl)methoxy)carbonyl)oxy)-2-((((E)-3-hexyldec-2-enoyl)oxy)methyl)propyl(9Z,12Z)-octadeca-9,12-dienoate] | 0.0875 | 73.57 | 97 | 0.49 | – |
| CCCCC/C=C\C/C=C\CCCCCCCC(=O)OCC(COC(=O)/C=C(/CCCCCCCC)CCCCCCCCCC)COC(=O)OCC1CCN(CC)CC1 (stereo not shown) [CPL-453] | 0.0653 | 81.2 | 98 | 0.82 | – |
| CCCCC/C=C\C/C=C\CCCCCCCC(=O)OCC(COC(=O)C=C(CCCCCCCCCC)CCCCCCCCCC)COC(=O)OCC1CCN(CC)CC1 (stereo not shown) [CPL-454, 3-((3-decyltridec-2-enoyl)oxy)-2-(((((1-ethylpiperidin-4-yl)methoxy)carbonyl)oxy)methyl)propyl(9Z,12Z)-octadeca-9,12-dienoate] | 0.1315 | 83.51 | 99 | 0.88 | – |
| CCCCCCCCCC/C(=C/C(=O)OCCCCCCCCCCN(CCCO)CCCCCOC(=O)/C=C(\CCCC)CCCCCCCCCC)CCC [CPL-1093, 10-(((5-(E)-3-butyltridec-2-enoyl)oxy)pentyl)((3-hydroxypropyl)amino)decyl(E)-3-propyl-2-tridecenoate] | 0.21 | 112.08 | 99 | 1.55 | – |
| ((3-hydroxypropyl)azanediyl)bis(butane-4,1-diyl) (2E,2′E)-bis(2-hexylidenedecanoate) [CPL-025] | 0.2 | 92.1 | 97 | 1.34 | – |
| ((3-hydroxypropyl)azanediyl)bis(butane-4,1-diyl)(2E,2′E)-bis(3-butylundec-2-enoate) [CPL-021] | 0.0729 | 69.64 | 95 | 0.75 | – |
